Experimental data reported in the supplement of paper PMC10307832.

Columns and labels:
Assay in all cases: relative viability (nuclei count vs DMSO), 5 days (fraction); higher = more cells survive
[1] = compound: CC(C)C[C@H](NC(=O)[C@H](Cc1ccccc1)NC(=O)c1cnccn1)B(O)O [Bortezomib] + CS(=O)(=O)N1CCN(Cc2cc3nc(-c4cccc5[nH]ncc45)nc(N4CCOCC4)c3s2)CC1 [Pictilisib] (partner 1 µM)
Outline: (§1)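 For relative viability, nuclei counts in treated wells were divided by those in vehicle wells. Lung cancer cell lines had been pin-tool dosed in 1536-well plates the day after seeding and cultured for 5 days, then fixed and stained in one step (final 0.05% Triton X-100, 1% formaldehyde, 1 ug/ml Hoechst) and imaged at 4×. Doses were one drug alone or a fixed anchor-drug dose plus five library-drug doses (not always all listed) in √10 steps, and values are duplicate-plate medians.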

[2] = compound: CC(C)C[C@H](NC(=O)[C@H](Cc1ccccc1)NC(=O)c1cnccn1)B(O)O [Bortezomib] + NC(=O)Nc1cc(-c2cccc(F)c2)sc1C(=O)N[C@H]1CCCNC1 [AZD7762] (partner 0.2 µM)
Outline: as §1

[3] = compound: CC1=CC(=NN1)NC2=CC(=NC(=N2)/C=C/C3=CC=CC=C3)N4CCN(CC4)C + CC(C)C[C@H](NC(=O)[C@H](Cc1ccccc1)NC(=O)c1cnccn1)B(O)O [Bortezomib] (partner 0.002 µM)
Outline: as §1

[4] = compound: CC1=CC(=NN1)NC2=CC(=NC(=N2)/C=C/C3=CC=CC=C3)N4CCN(CC4)C + Nc1nc2[nH]cc(CCc3ccc(C(=O)N[C@@H](CCC(=O)O)C(=O)O)cc3)c2c(=O)[nH]1 [Pemetrexed] (partner 0.2 µM)
Outline: as §1

Cell Line	relative viability ([1]; first compound 0.0002 µM)	relative viability ([1]; first compound 0.000632 µM)	relative viability ([1]; first compound 0.002 µM)	relative viability ([1]; first compound 0.006325 µM)	relative viability ([1]; first compound 0.02 µM)	relative viability ([2]; first compound 0.0002 µM)	relative viability ([2]; first compound 0.000632 µM)	relative viability ([2]; first compound 0.002 µM)	relative viability ([2]; first compound 0.006325 µM)	relative viability ([2]; first compound 0.02 µM)	relative viability ([3]; first compound 0.08 µM)	relative viability ([3]; first compound 0.253 µM)	relative viability ([3]; first compound 0.8 µM)	relative viability ([3]; first compound 2.53 µM)	relative viability ([3]; first compound 8 µM)	relative viability ([4]; first compound 0.08 µM)	relative viability ([4]; first compound 0.253 µM)	relative viability ([4]; first compound 0.8 µM)	relative viability ([4]; first compound 2.53 µM)	relative viability ([4]; first compound 8 µM)
NCI-H1666	0.451	0.518	0.41	0.198	0.168	0.849	0.935	0.817	0.592	0.333	0.892	0.925	0.872	0.55	0.215	0.735	0.914	0.839	0.846	0.792
NCI-H1437	0.41	0.512	0.434	0.0867	0.0795	1.09	1.11	1.04	0.496	0.194	0.621	0.554	0.656	0.247	0.0909	0.422	0.325	0.295	0.212	0.162
NCI-H1792	0.29	0.21	0.192	0.306	0.175	0.657	0.693	0.602	0.344	0.0353	0.863	0.999	0.919	0.84	0.0942	0.624	0.888	0.722	0.0892	0.0324
NCI-H1355	0.376	0.396	0.497	0.202	0.136	0.794	0.721	0.922	0.293	0.133	1.16	1.17	1.16	0.885	0.168	1.04	1.01	1.01	0.902	0.546
NCI-H2347	0.803	0.587	0.564	0.318	0.0071	0.888	0.695	0.73	0.553	0.276	0.829	1.21	1.04	1.32	0.461	0.418	0.415	0.447	0.397	0.379
A-427	0.673	0.626	0.771	0.703	0.175	0.719	0.872	0.763	0.197	0.146	1.1	1.06	1.08	0.635	0.361	1.06	1.1	0.97	0.51	0.202
HCC-366	0.119	0.12	0.117	0.166	0.0325	0.221	0.331	0.401	0.37	0.0238	0.993	1.18	1.03	0.0189	0.0155	0.171	0.189	0.187	0.0462	0.0222
HCC-78	0.183	0.23	0.207	0.21	0.193	0.591	0.603	0.453	0.616	0.238	0.456	0.636	0.582	0.559	0.214	0.804	0.91	0.926	0.938	0.874
PC-14	0.685	0.726	0.632	0.0319	0.0362	0.279	0.336	0.364	0.123	0.0742	0.748	0.947	0.839	0.488	0.0557	0.14	0.134	0.15	0.0655	0.0336
NCI-H2087	0.77	0.74	0.7	0.159	0.0891	1.3	1.23	1.19	0.0709	0.0403	0.792	1.03	0.818	0.648	0.11	0.63	0.652	0.652	0.566	0.162
HOP-62	0.752	0.667	0.748	0.333	0.0568	0.603	0.387	0.51	0.25	0.043	0.9	0.549	1.07	0.403	0.107	0.364	0.328	0.288	0.294	0.182
EKVX	0.429	0.426	0.463	0.33	0.0746	0.72	0.741	0.845	0.286	0.0785	0.987	1.33	1.2	0.824	0.141	0.366	0.5	0.674	0.361	0.197
EMC-BAC-2	0.523	0.504	0.544	0.476	0.158	1.09	1.04	1.04	0.573	0.436	1.05	1.1	1.01	0.813	0.135	0.439	0.495	0.445	0.465	0.234
HARA	0.479	0.529	0.481	0.0462	0.0659	0.257	0.311	0.577	0.178	0.0909	0.971	1.31	1.09	0.352	0.109	0.234	0.252	0.252	0.165	0.175
LU99A	0.385	–	0.35	0.328	0.169	0.373	0.344	0.381	0.437	0.163	1.13	0.993	0.779	0.25	0.127	0.187	0.2	0.199	0.202	0.173
NCI-H441	0.483	0.315	0.35	0.0918	0.102	1.04	1.09	0.754	0.117	0.134	0.543	0.547	0.332	0.265	0.192	0.24	0.25	0.273	0.221	0.137
